Reference: patent US20160115540A1, “PRODRUGS AND DRUGS” (Biogen MA Inc., priority 2013, published 2016)
Structures can show the parent of a compound that is named as a salt.

Test system: jejunum
Assay: Transcriptional profiling on Affymetrix GeneChips, single dose, naïve mice: jejunum
Type: in vivo, C57BL/6 mice
Experimental: Treated mice were sacrificed at 2, 7, or 12 hours. Tissues (liver, spleen, kidney, jejunum, cortex, hippocampus, striatum and whole blood) were collected and analyzed by transcriptional profiling on mouse Affymetrix GeneChips.
Tissues (liver, spleen, kidney, jejunum, cortex, hippocampus, striatum and whole blood) were collected and analyzed by transcriptional profiling on mouse Affymetrix GeneChips.
Animals were exposed to CO2 and whole blood collected via cardiac puncture. Two 100 μl aliquots of whole blood were collected in 1.5 mL microcentrifuge tubes and snap frozen in liquid nitrogen. Peripheral (liver, spleen, kidney and jejunum) and CNS brain (cerebellum, hippocampus, striatum and cortex) tissues were harvested and snap frozen in liquid nitrogen, with special care taken to collect tissues of similar size and from the same location. All samples were stored at −80° C. until RNA extraction was conducted.
For RNA preparation, frozen tissues were placed in 2 mL RNAse-free 96-well blocks with 1.5 mL QIAzol Lysis Reagent (QIAgen) and a 3.2 mm stainless steel bead (BioSpec Products, Bartlesville, Okla.). Tissues were disrupted for four cycles of 45 seconds in a Mini-Beadbeater (Biospec Products). RNA was extracted in chloroform and the aqueous phase was mixed with an equal volume of 70% ethanol. Extracted RNA was applied to RNeasy 96 plates and purified by the spin method according to the manufacturer's protocol (RNeasy 96 Universal Tissue Protocol, QIAgen, Hilden Germany).
Automated sample amplifications and biotin labelings were carried out using the NuGEN Ovation RNA Amplification system V2 (Cat #3100), Ovation WB reagent (Cat #1300) and Encore Biotin module (Cat #4200) (NuGEN Technologies, Inc, San Carlos, Calif.) according to manufacturer's recommendations using an Arrayplex automated liquid handler (Beckman Coulter, Indianapolis, Ind.). Two micrograms of biotin labeled sscDNA probe were hybridized to Affymetrix GeneChip Affymetrix HT_MG-430_PM plate arrays with modified conditions as described in Allaire et al. Washing and staining of the hybridized arrays were completed as described in the GeneChip Expression analysis technical manual for HT plate arrays using the Genechip® Array Station (Affymetrix, Santa Clara, Calif.) with modifications as described in Allaire et al. The processed GeneChip® plate arrays were scanned using GeneTitan scanner (Affymetrix, Santa Clara, Calif.).
Affymetrix scans were subject to quality control (QC) measures. These tests included a visual inspection of the distribution of raw signal intensities and an assessment of RNA degradation, relative log expression (RLE), and normalized unsealed standard error (NUSE). All sample scans that passed these QC metrics were included in the analysis.
All CEL files were subjected to GC-content-based Robust Multi-array Average (GCRMA) normalization (version 2.20.0) (Irizarry R A, et al. Nucleic Acids Res 2003; 31:e15; Li C, et al. Genome Biol 2001; 2:[…]0032). Expression levels were log (base 2) transformed.
All calculations and analyses were carried out using R (version 2.11.1) and Bioconductor computational tools (Gentleman R. Springer Science+Business Media 2005).

[1] = 100DMF-vs-Veh or 100MMF-vs-Veh, 12 h

COC(=O)/C=C/C(=O)OC [DMF, dimethyl fumarate]
FC Lrp8 (1440882_PM_at) (100DMF-vs-100MMF, 2 h): −1.69 | FC Alb (1425260_PM_at) (100DMF-vs-100MMF, 7 h): 9.97 | FC G6pc (1417880_PM_at) (100DMF-vs-100MMF, 7 h): −2.45 | FC Abcc3 (1428988_PM_at) [1]: 2.02 | FC Acsm5 (1437662_PM_at) [1]: 1.86 | FC Akr1b8 (1448894_PM_at) [1]: 17.57 | FC Akr1c12 (1450455_PM_s_at) [1]: 1.72 | FC Akr1c19 (1455454_PM_at) [1]: 3.20 | FC Blvrb (1451386_PM_at) [1]: 1.53 | FC Cbr3 (1427912_PM_at) [1]: 25.95 | FC Ces1e (1419510_PM_at) [1]: 2.70 | FC Ces1f (1424266_PM_s_at) [1]: 6.17 | FC Ces1g (1449486_PM_at) [1]: 7.40 | FC G6pd2 (1422327_PM_s_at) [1]: 1.74 | FC Gpx2 (1449279_PM_at) [1]: 1.67 | FC Gsr (1421816_PM_at) [1]: 2.20 | FC Gss (1441931_PM_x_at) [1]: 1.53 | FC Gsta2 (1421040_PM_a_at) [1]: 5.65 | FC Gsta2 (1421041_PM_s_at) [1]: 2.04 | FC Gsta3 (1423436_PM_at) [1]: 10.36 | FC Gsta3 (1423437_PM_at) [1]: 7.86 | FC Gstm1 (1425627_PM_x_at) [1]: 4.63 | FC Gstm1 (1448330_PM_at) [1]: 4.15 | FC Gstm3 (1427473_PM_at) [1]: 2.03 | FC Gstm3 (1427474_PM_s_at) [1]: 1.57 | FC Gstm4 (1424835_PM_at) [1]: 5.03 | FC Gstm6 (1422072_PM_a_at) [1]: 1.95 | FC Nqo1 (1423627_PM_at) [1]: 2.30 | FC Pir (1429001_PM_at) [1]: 3.79 | FC Setd4 (1425239_PM_at) [1]: 1.66 | FC Setd4 (1460373_PM_a_at) [1]: 1.52 | FC Slc5a4b (1422757_PM_at) [1]: 2.21 | FC Ugt2b5 (1419622_PM_at) [1]: 4.92 | FC Ugt2b35 (1439624_PM_at) [1]: 2.37 | FC Ugt2b36 (1455595_PM_at) [1]: 2.94 | Number of genes, DMF Only / MMF Only (Jejunum): 9 | Akr1c13 (1418672_PM_at) differential expression (Jejunum, 2 hr): 1.62 | Areg (1421134_PM_at) differential expression (Jejunum, 2 hr): 3.58 | B3galt5 (1428397_PM_at) differential expression (Jejunum, 2 hr): −2.77 | Cbr1 (1460196_PM_at) differential expression (Jejunum, 2 hr): 1.55 | Ces1e (1419510_PM_at) differential expression (Jejunum, 2 hr): 1.85 | Dnase2a (1430135_PM_at) differential expression (Jejunum, 2 hr): 1.77 | Dppa5a (1416552_PM_at) differential expression (Jejunum, 2 hr): 3.07 | Dusp4 (1428834_PM_at) differential expression (Jejunum, 2 hr): 1.51 | Entpd5 (1433763_PM_at) differential expression (Jejunum, 2 hr): 1.53 | Ereg (1419431_PM_at) differential expression (Jejunum, 2 hr): 2.50 | Ero1l (1419030_PM_at) differential expression (Jejunum, 2 hr): 1.92 | Esd (1441604_PM_at) differential expression (Jejunum, 2 hr): 1.71 | Fam13a (1456611_PM_at) differential expression (Jejunum, 2 hr): 1.54 | Gclc (1424296_PM_at) differential expression (Jejunum, 2 hr): 4.25 | Gsr (1421816_PM_at) differential expression (Jejunum, 2 hr): 2.23 | Gss (1441931_PM_x_at) differential expression (Jejunum, 2 hr): 1.95 | Gsta3 (1423436_PM_at) differential expression (Jejunum, 2 hr): 4.03 | Gsta4 (1416368_PM_at) differential expression (Jejunum, 2 hr): 1.72 | Gstm1 (1416416_PM_x_at) differential expression (Jejunum, 2 hr): 2.30 | Mafg (1448916_PM_at) differential expression (Jejunum, 2 hr): 2.20 | Nos2 (1420393_PM_at) differential expression (Jejunum, 2 hr): −2.39 | Nqo1 (1423627_PM_at) differential expression (Jejunum, 2 hr): 2.16 | Osgin1 (1424022_PM_at) differential expression (Jejunum, 2 hr): 2.08 | Pgm2 (1437240_PM_at) differential expression (Jejunum, 2 hr): 2.15 | Prss8 (1418320_PM_at) differential expression (Jejunum, 2 hr): 2.60 | Ptk6 (1442923_PM_at) differential expression (Jejunum, 2 hr): −2.42 | Setd4 (1435405_PM_at) differential expression (Jejunum, 2 hr): 1.91 | Slc35e3 (1428805_PM_at) differential expression (Jejunum, 2 hr): 1.53 | Slc40a1 (1417061_PM_at) differential expression (Jejunum, 2 hr): 2.33 | Srr (1453421_PM_at) differential expression (Jejunum, 2 hr): 1.99 | Srxn1 (1425351_PM_at) differential expression (Jejunum, 2 hr): 1.71 | Tifa (1426501_PM_a_at) differential expression (Jejunum, 2 hr): −2.43 | Tox3 (1436600_PM_at) differential expression (Jejunum, 2 hr): 1.70 | Tsku (1440230_PM_at) differential expression (Jejunum, 2 hr): 1.61 | Ugt2b5 (1419622_PM_at) differential expression (Jejunum, 2 hr): 3.40 | Ugt2b36 (1455595_PM_at) differential expression (Jejunum, 2 hr): 2.07 | Unc5c1 (1429950_PM_at) differential expression (Jejunum, 2 hr): −1.53 | Abcc3 (1428988_PM_at) differential expression (Jejunum, 7 hr): 1.88 | Acsm5 (1437662_PM_at) differential expression (Jejunum, 7 hr): 1.60 | Akr1c13 (1418672_PM_at) differential expression (Jejunum, 7 hr): 1.61 | Cbr1 (1460196_PM_at) differential expression (Jejunum, 7 hr): 1.65 | Ces1e (1419510_PM_at) differential expression (Jejunum, 7 hr): 2.10 | Ddc (1426215_PM_at) differential expression (Jejunum, 7 hr): 1.74 | G6pd2 /// G6pdx (1422327_PM_s_at) differential expression (Jejunum, 7 hr): 1.82 | G6pdx (1448354_PM_at) differential expression (Jejunum, 7 hr): 1.54 | Gclc (1424296_PM_at) differential expression (Jejunum, 7 hr): 2.06 | Gm3776 /// Gsta1 /// Gsta2 (1421041_PM_s_at) differential expression (Jejunum, 7 hr): 1.72 | Gsr (1421816_PM_at) differential expression (Jejunum, 7 hr): 2.83 | Gss (1441931_PM_x_at) differential expression (Jejunum, 7 hr): 1.97 | Gsta3 (1423436_PM_at) differential expression (Jejunum, 7 hr): 4.27 | Gsta4 (1416368_PM_at) differential expression (Jejunum, 7 hr): 2.09 | Gstm1 (1416416_PM_x_at) differential expression (Jejunum, 7 hr): 3.19 | Gstm2 (1416411_PM_at) differential expression (Jejunum, 7 hr): 1.58 | Gstm4 (1424835_PM_at) differential expression (Jejunum, 7 hr): 3.83 | Gstm6 (1422072_PM_a_at) differential expression (Jejunum, 7 hr): 1.94 | Htatip2 (1451814_PM_a_at) differential expression (Jejunum, 7 hr): 1.51 | Nqo1 (1423627_PM_at) differential expression (Jejunum, 7 hr): 2.31 | Pir (1429001_PM_at) differential expression (Jejunum, 7 hr): 3.79 | Setd4 (1435405_PM_at) differential expression (Jejunum, 7 hr): 1.90 | Slc5a4b (1422757_PM_at) differential expression (Jejunum, 7 hr): 1.67 | Txnrd1 (1424487_PM_x_at) differential expression (Jejunum, 7 hr): 1.60 | Ugt2b5 (1419622_PM_at) differential expression (Jejunum, 7 hr): 3.42 | Ugt2b36 (1455595_PM_at) differential expression (Jejunum, 7 hr): 2.23 | Abcc3 (1428988_PM_at) differential expression (Jejunum, 12 hr): 2.02 | Acsm5 (1437662_PM_at) differential expression (Jejunum, 12 hr): 1.86 | Akr1c12 /// Akr1c13 (1450455_PM_s_at) differential expression (Jejunum, 12 hr): 1.72 | Aldh1a7 (1418601_PM_at) differential expression (Jejunum, 12 hr): 1.65 | Blvrb (1451386_PM_at) differential expression (Jejunum, 12 hr): 1.53 | Ces1e (1419510_PM_at) differential expression (Jejunum, 12 hr): 2.70 | G6pd2 /// G6pdx (1422327_PM_s_at) differential expression (Jejunum, 12 hr): 1.74 | Gm3776 /// Gsta1 /// Gsta2 (1421041_PM_s_at) differential expression (Jejunum, 12 hr): 2.04 | Gpx2 (1449279_PM_at) differential expression (Jejunum, 12 hr): 1.67 | Gsr (1421816_PM_at) differential expression (Jejunum, 12 hr): 2.20 | Gss (1441931_PM_x_at) differential expression (Jejunum, 12 hr): 1.53 | Gsta3 (1423436_PM_at) differential expression (Jejunum, 12 hr): 10.36 | Gsta4 (1416368_PM_at) differential expression (Jejunum, 12 hr): 2.58 | Gstm1 (1416416_PM_x_at) differential expression (Jejunum, 12 hr): 4.15 | Gstm2 (1416411_PM_at) differential expression (Jejunum, 12 hr): 2.04 | Gstm4 (1424835_PM_at) differential expression (Jejunum, 12 hr): 5.03 | Gstm6 (1422072_PM_a_at) differential expression (Jejunum, 12 hr): 1.95 | Nqo1 (1423627_PM_at) differential expression (Jejunum, 12 hr): 2.30
